Consider one compound from ChEMBL document CHEMBL5120939, “Novel Isoindolinone-Based Analogs of the Natural Cyclic Peptide Fenestin A: Synthesis and Antitumor Activity” (ACS Med Chem Lett, 2022).

What all share (assay type): functional
Assay [1] concerns HeLa. Put plainly: Induction of cell cycle arrest in human HeLa cells assessed as 2N cells at 6.2 uM incubated for 48 hrs by RNAse A/PI staining based flow cytometric analysis (reference value: 29.9%).
Assay [2] deals with HeLa. Description: Induction of apoptosis in human HeLa cells assessed as viable cells at 13.2 uM incubated for 48 hrs by annexinV-FITC/propidium iodide staining based flow cytometry analysis (reference value: 99.8%). Conditions: read-out: Activity.
Assay [3] relates to HeLa. Put plainly: Induction of apoptosis in human HeLa cells assessed as late apoptotic cells at 19.6 uM incubated for 48 hrs by annexinV-FITC/propidium iodide staining based flow cytometry analysis (reference value: 0.1%). (Flow cytometry measures light scatter and fluorescence of single cells or particles in a stream.)
Assay [4] has as its system HeLa. Put plainly: Induction of cell cycle arrest in human HeLa cells assessed as <2N cells at 12.3 uM incubated for 48 hrs by RNAse A/PI staining based flow cytometric analysis (reference value: 41.6%).
The test system of assay [5] is HeLa. Description: Induction of apoptosis in human HeLa cells assessed as necrotic cells at 26.1 uM incubated for 48 hrs by annexinV-FITC/propidium iodide staining based flow cytometry analysis (reference value: 0.0%).
The subject of assay [6] is HeLa. Description: Induction of apoptosis in human HeLa cells assessed as necrotic cells at 19.6 uM incubated for 48 hrs by annexinV-FITC/propidium iodide staining based flow cytometry analysis (reference value: 0.0%).
Assay [7] deals with HeLa. Put plainly: Induction of cell cycle arrest in human HeLa cells assessed as >4N cells at 12.3 uM incubated for 12 hrs by RNAse A/PI staining based flow cytometric analysis (reference value: 2.61%).
Assay [8] relates to HeLa. Description: Induction of cell cycle arrest in human HeLa cells assessed as 4N cells at 24.6 uM incubated for 48 hrs by RNAse A/PI staining based flow cytometric analysis (reference value: 5.37%).
The subject of assay [9] is HeLa. Description: Induction of cell cycle arrest in human HeLa cells assessed as <2N cells at 6.2 uM incubated for 48 hrs by RNAse A/PI staining based flow cytometric analysis (reference value: 41.6%).
The test system of assay [10] is HeLa. Put plainly: Induction of cell cycle arrest in human HeLa cells assessed as >4N cells at 12.3 uM incubated for 48 hrs by RNAse A/PI staining based flow cytometric analysis (reference value: 2.61%).
For assay [11], the system named is HeLa. Put plainly: Induction of cell cycle arrest in human HeLa cells assessed as >4N cells at 24.6 uM incubated for 48 hrs by RNAse A/PI staining based flow cytometric analysis (reference value: 2.61%).

Turning to `CC[C@H](C)[C@@H]1NC(=O)[C@H](CC(C)C)NC(=O)[C@@H]2CSCN2C(=O)[C@@H]2CSCN2C(=O)CN2C(=O)c3ccccc3[C@@]2(O)CN(Cc2ccccc2)C1=O`, the Activity in assay [1] is 24.9%; in assay [3], 6.7%; in assay [4] it was 14.9%; in [5], 0.9%; in assay [6], 1.3%; in assay [7] it was 9.83%. In addition, the Activity was determined as 47.5% in [8], 37.5% in assay [9], 0% in assay [10] and 3.51% in [11]. Moreover, in assay [2], the viability at 13.2 µM turned out to be 84.5%.
